Results reported in PMC11659602, “Discovering covalent cyclic peptide inhibitors of peptidyl arginine deiminase 4 (PADI4) using mRNA-display with a genetically encoded electrophilic warhead” (Communications Chemistry, 2024).
“And” between values parts separate entries of the source, which are not always exact repeats. Equal entries are not always repeated. Where two headings read alike, the source gives them in different places. Where a SMILES comes first, the peptide text is derived from it. Bridges are numbered along the chain shown (N, C = ends). [ ]: non-standard residue; d: D form. Orn(fluoroacetimidoyl) = N=C(CF)NCCC[C@H](N)C(=O)O

Tests used:
PADI4 [1] = molecular target: T1, PADI4 (Homo sapiens, UniProt Q9UM07); assay: Incubation time-dependent COLDER assay IC50(t), Krippendorff fit; type: biochemical; conditions: for Ki / kinact: Krippendorff fit of IC50 vs time
T1 construct: His6; made in house
Method: To determine KI and kinact of covalent peptide inhibitors, COLDER assays were used[52]. Peptide dilutions were prepared using 5-fold dilutions from 500 µM and 300 µM to 0.8 µM and 2.4 µM, respectively, at 1% DMSO in COLDER buffer (50 mM HEPES, 150 mM NaCl and 2 mM DTT, pH 7.5). The 9 peptide dilutions were added to a 96-well plate, alongside a 1% DMSO control. An equal volume of 10 mM BAEE was added to each well and the solution was homogenised by pipette mixing. This was mixed with 50 nM His-PADI4, 0.6 mg/mL BSA and 10 mM CaCl2, in COLDER buffer, to bring the final volume to 300 µL in each well. Alternatively, His-PAD1 (100 nM) /His-PADI2 (100 nM) /His-PADI3 (250 nM) were used. For assays with PADI1 and PADI3, 10 mM N^α-benzoyl-L-arginine methyl […] (BAME) was used as the substrate instead of BAEE[48],[58],[59]. At 15-minute intervals, for 5 timepoints, 50 µL of solution was taken from each well and quenched with 10 µL EDTA (300 mM). 200 µL of COLDER solution containing 20 mM diacetyl monoxime/2,3-butanedione monoxime (Merck), 0.5 mM thiosemicarbazide (Acros Organics), 2.25 M H3PO4, 4.5 M H2SO4 and 1.5 mM NH4Fe(SO4)2.12H2O was added to each well. Samples were incubated for 20 min at 95 °C before measuring absorbance at 540 nm on a CLARIOstar Plus (BMG LABTECH). IC50 values for each time point were determined using non-linear regression with GraphPad Prism. Incubation time–dependent potency IC50(t) against incubation time was fitted to the Krippendorff equation (below) to determine KI and kinact using a Python script[53],[59]. […] IC50t=KI1+S/KM⋅2−2e^−ηIC50⋅kinact⋅t/ηIC50⋅kinact⋅t−1 WhereηIC50=IC50t/KI1+S/KM+IC50t

PADI4 [2] = molecular target: T1, PADI4; assay: Surface plasmon resonance (SPR), single cycle kinetics; type: binding; conditions: for Ki: k-1/k+1
How it was run: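 Biotinylated His-PADI4 captured on CAP chip (~3000 RU); peptides as 5-point 3-fold series in HEPES, 150 mM NaCl, 10 mM CaCl2, 0.1% DMSO, pH 7.5, triplicate. Warhead peptides fitted two-state (k-2 = 0; Ki = k-1/k+1, kinact = k+2); others 1:1.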

PADI4 [3] = molecular target: T1, PADI4; assay: COLDER inhibition assay, BAEE substrate, with or without 1 h preincubation; type: biochemical; conditions: for IC50: COLDER; for remaining activity at 0.003 µM: peptide 0.003 µM; for remaining activity at 0.01 µM: peptide 0.01 µM; for remaining activity at 0.03 µM: peptide 0.03 µM; for remaining activity at 0.1 µM: peptide 0.1 µM; for remaining activity at 0.3 µM: peptide 0.3 µM; for remaining activity at 1 µM: peptide 1 µM; for remaining activity at 3 µM: peptide 3 µM
How it was run: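 50 nM His-PADI4 with peptide (final 0.1× the 0.03-500 µM series), 0.6 mg/mL BSA, 10 mM CaCl2 in 50 mM HEPES, 150 mM NaCl, 2 mM DTT, pH 7.5, with or without 1 h preincubation before 10 mM BAEE. After 30 min at rt, EDTA-quenched; citrulline read colorimetrically at 540 nm; mean ± SEM, ≥2 replicates.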

[4] = 15 mins, replicates, read-out: apparent IC50
[5] = 30 mins, replicates, read-out: apparent IC50
[6] = 45 mins, replicates, read-out: apparent IC50
[7] = 60 mins, replicates, read-out: apparent IC50
[8] = 75 mins, replicates, read-out: apparent IC50
[9] = each replicate, read-out: k2 / kinact
[10] = two-state reaction model, k+2, read-out: SPR kinact (converted)
[11] = 1 h preincubation of peptide and PADI4, 10 mM CaCl2, read-out: IC50 Values 1 h preincubation
[12] = no preincubation of peptide and PADI4, 10 mM CaCl2, read-out: IC50 Values 0 h preincubation
[13] = T=0, values starred, read-out: PADI4 activity normalised to 0.1% DMSO
[14] = T=1, read-out: PADI4 activity normalised to 0.1% DMSO
[15] = T=0, read-out: PADI4 activity normalised to 0.1% DMSO

T1 sequence (Q9UM07 whole entry): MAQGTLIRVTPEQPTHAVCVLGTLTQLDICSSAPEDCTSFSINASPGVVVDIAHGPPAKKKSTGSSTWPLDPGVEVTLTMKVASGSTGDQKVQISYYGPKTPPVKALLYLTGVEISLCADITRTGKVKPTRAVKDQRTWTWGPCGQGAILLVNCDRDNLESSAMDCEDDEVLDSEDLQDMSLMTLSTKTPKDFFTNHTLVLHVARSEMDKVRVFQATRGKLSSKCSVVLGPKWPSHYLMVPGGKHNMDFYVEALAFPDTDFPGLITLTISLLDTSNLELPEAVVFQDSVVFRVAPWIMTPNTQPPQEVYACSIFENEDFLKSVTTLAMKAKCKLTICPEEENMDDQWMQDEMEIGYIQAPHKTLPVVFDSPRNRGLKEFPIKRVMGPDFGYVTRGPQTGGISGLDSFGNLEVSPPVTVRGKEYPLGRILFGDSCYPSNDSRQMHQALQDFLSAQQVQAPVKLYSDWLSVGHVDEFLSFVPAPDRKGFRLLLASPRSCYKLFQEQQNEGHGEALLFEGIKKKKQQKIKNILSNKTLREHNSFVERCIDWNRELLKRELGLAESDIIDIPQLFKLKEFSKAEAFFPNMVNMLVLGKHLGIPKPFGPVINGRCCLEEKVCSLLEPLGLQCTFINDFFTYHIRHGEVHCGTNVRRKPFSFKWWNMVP

Row | kinact/KI (PADI4 [1]) | IC50 (PADI4 [1]; [4]) | IC50 (PADI4 [1]; [5]) | IC50 (PADI4 [1]; [6]) | IC50 (PADI4 [1]; [7]) | IC50 (PADI4 [1]; [8]) | Ki (PADI4 [1]) | kinact (PADI4 [1]) | kinact/KI (PADI4 [2]) | k2 / kinact (PADI4 [2]; each replicate) | kinact (PADI4 [2]; [9]) | kinact (PADI4 [2]; [10]) | Ki (PADI4 [2]; two-state reaction model) | IC50 (PADI4 [3]; [11]) | IC50 (PADI4 [3]; [12]) | remaining activity at 0.003 µM (PADI4 [3]; [13]) | remaining activity at 0.003 µM (PADI4 [3]; [14]) | remaining activity at 0.01 µM (PADI4 [3]; [13]) | remaining activity at 0.01 µM (PADI4 [3]; [14]) | remaining activity at 0.03 µM (PADI4 [3]; [15]) | SMILES | further results
1 | 1230 M⁻¹ s⁻¹ | 8810 nM and 8730 nM and 8280 nM | 4670 nM and 4780 nM and 4310 nM | 3420 nM and 4190 nM and 3180 nM | 3080 nM and 3100 nM and 2670 nM | 2720 nM and 2530 nM and 2470 nM | 1900 ± 100 nM | 0.00217 s⁻¹ | 15200 M⁻¹ s⁻¹ | 0.0019 s⁻¹ | 0.0017 s⁻¹ | 0.00183 s⁻¹ | 120 ± 10 nM | 70 ± 4 nM | 4400 ± 70 nM | 97.2% | 84.1% | 92.4% | 86.9% | 93.5% | N=C(N)NCCC[C@@H]1NC(=O)[C@H](CCCNC(=N)CF)NC(=O)[C@H](CC(=O)O)NC(=O)[C@H](Cc2ccc(O)cc2)NC(=O)[C@H](CCCCN)NC(=O)[C@H](CO)NC(=O)[C@@H](Cc2ccc(O)cc2)NC(=O)CSC[C@@H](C(=O)NCC(N)=O)NC(=O)[C@H](CC(=O)O)NC(=O)[C@H](CCCNC(=N)N)NC(=O)[C@@H]2CCCN2C(=O)[C@H](CO)NC1=O [cP4_4, ySKYD(2)RSPRDCG] ({CH2CO}-[dY]SKYD[Orn(fluoroacetimidoyl)]RSPRDCG-NH2; thioether N-12) | PADI4 activity, normalised (Figure S11c) (PADI4 [1]; cP4_4 0.08 µM): 98.2718 and 96.1223 and 99.8314; PADI4 activity, normalised (Figure S11c) (PADI4 [1]; cP4_4 0.24 µM): 93.4756 and 94.2113; PADI4 activity, normalised (Figure S11c) (PADI4 [1]; cP4_4 0.4 µM): 100.554 and 87.7482; PADI4 activity, normalised (Figure S11c) (PADI4 [1]; cP4_4 1.2 µM): 75.0589 and 75.4411 and 70.326; PADI4 activity, normalised (Figure S11c) (PADI4 [1]; cP4_4 2 µM): 67.2548 and 61.3338; PADI4 activity, normalised (Figure S11c) (PADI4 [1]; cP4_4 6 µM): 29.9549 and 26.3769; PADI4 activity, normalised (Figure S11c) (PADI4 [1]; cP4_4 10 µM): 22.5225 and 20.5991 and 19.0146; PADI4 activity, normalised (Figure S11c) (PADI4 [1]; cP4_4 30 µM): 7.3132 and 8.5351 and 5.9198; PADI4 activity, normalised (Figure S11c) (PADI4 [1]; cP4_4 50 µM): 3.0999 and 5.4575 and 3.9528; remaining activity at 0.03 µM (PADI4 [3]; [14]): 73.7%; remaining activity at 0.1 µM (PADI4 [3]; [15]): 90.5%; remaining activity at 0.1 µM (PADI4 [3]; [14]): 29.1%; remaining activity at 0.3 µM (PADI4 [3]; [15]): 87.5%; remaining activity at 1 µM (PADI4 [3]; [15]): 76.3%; remaining activity at 3 µM (PADI4 [3]; [15]): 53.9%; remaining activity at 10 µM (PADI4 [3]; peptide 10 µM, T=0, read-out: PADI4 activity normalised to 0.1% DMSO): 20.8%; remaining activity at 30 µM (PADI4 [3]; peptide 30 µM, T=0, read-out: PADI4 activity normalised to 0.1% DMSO): 8.03%
2 | 3550 M⁻¹ s⁻¹ | 4150 nM and 3690 nM and 2680 nM | 1490 nM and 1390 nM and 1520 nM | 996 nM and 1150 nM and 1210 nM | 809 nM and 775 nM and 965 nM | 752 nM and 784 nM and 780 nM | 780 ± 60 nM | 0.00283 s⁻¹ | 26600 M⁻¹ s⁻¹ | 0.0051 s⁻¹ | 0.0028 s⁻¹ | 0.00417 s⁻¹ | 160 ± 30 nM | 52 ± 2 nM | 1600 ± 30 nM | 95.7% | 87.4% | 92.2% | 88.3% | 95.8% | CC(C)C[C@@H]1NC(=O)[C@H](CCCCN)NC(=O)[C@H](CO)NC(=O)[C@H](CO)NC(=O)[C@H](Cc2ccc(O)cc2)NC(=O)[C@H](Cc2c[nH]cn2)NC(=O)[C@H](CCCNC(=N)CF)NC(=O)[C@H](CC(=O)O)NC(=O)[C@H](CC(C)C)NC(=O)[C@@H](Cc2ccc(O)cc2)NC(=O)CSC[C@@H](C(=O)NCC(N)=O)NC(=O)[C@H](Cc2ccc(O)cc2)NC1=O [cP4_15, yLD(2)HYSSKLYCG] ({CH2CO}-[dY]LD[Orn(fluoroacetimidoyl)]HYSSKLYCG-NH2; thioether N-12) | IC50 (PADI4 [1]; 60-minute time point, no preincubation, read-out: PADI4 IC50): 850 nM; remaining activity at 0.048 µM (PADI4 [1]; 1 h, 0.048 µM, quenched after 60 mins, read-out: PADI4 activity normalised to 0.1% DMSO): 98.8%; remaining activity at 0.08 µM (PADI4 [1]; 1 h, 0.08 µM, quenched after 60 mins, read-out: PADI4 activity normalised to 0.1% DMSO): 93.4%; remaining activity at 0.24 µM (PADI4 [1]; 1 h, 0.24 µM, quenched after 60 mins, read-out: PADI4 activity normalised to 0.1% DMSO): 87.8%; remaining activity at 0.4 µM (PADI4 [1]; 1 h, 0.4 µM, quenched after 60 mins, read-out: PADI4 activity normalised to 0.1% DMSO): 76.7%; remaining activity at 1.2 µM (PADI4 [1]; 1 h, 1.2 µM, quenched after 60 mins, read-out: PADI4 activity normalised to 0.1% DMSO): 35.6%; remaining activity at 2 µM (PADI4 [1]; 1 h, 2 µM, quenched after 60 mins, read-out: PADI4 activity normalised to 0.1% DMSO): 23.1%; remaining activity at 6 µM (PADI4 [1]; 1 h, 6 µM, quenched after 60 mins, read-out: PADI4 activity normalised to 0.1% DMSO): 12.5%; remaining activity at 10 µM (PADI4 [1]; 1 h, 10 µM, quenched after 60 mins, read-out: PADI4 activity normalised to 0.1% DMSO): 7.1%; remaining activity at 0.03 µM (PADI4 [3]; [14]): 81.5%; remaining activity at 0.1 µM (PADI4 [3]; [15]): 88.7%; remaining activity at 0.3 µM (PADI4 [3]; [15]): 82.7%; remaining activity at 1 µM (PADI4 [3]; [15]): 61.2%; remaining activity at 3 µM (PADI4 [3]; [15]): 32.3%
